Laboratory results from patent US7524867B2, “Tetrasubstituted imidazole derivatives as cannabinoid CB1 receptor modulators with a high CB1/CB2 receptor subtype selectivity” (Solvay Pharmaceuticals, B.V., priority 2004, dated 2009).
pKi: −log10 of the molar value. Read-outs that look alike come from different tables or passages of the source.

Tests used:
[1] = target: T1, human cannabinoid CB1 receptor (Homo sapiens, UniProt P21554); test: In vitro affinity for cannabinoid-CB1 receptors ([3H]CP-55,940 radioligand binding, CHO cell membranes); settings: for CB1/CB2 ratio: CB1/CB2 receptor subtype selectivity (affinity ratio; numerically CB2 nM value divided by CB1 nM value)
T1 construct: expressed in transfected cells; host or cells: Chinese hamster ovary (CHO) cells, stably transfected; membrane preparation
T1 sequence (P21554 whole entry): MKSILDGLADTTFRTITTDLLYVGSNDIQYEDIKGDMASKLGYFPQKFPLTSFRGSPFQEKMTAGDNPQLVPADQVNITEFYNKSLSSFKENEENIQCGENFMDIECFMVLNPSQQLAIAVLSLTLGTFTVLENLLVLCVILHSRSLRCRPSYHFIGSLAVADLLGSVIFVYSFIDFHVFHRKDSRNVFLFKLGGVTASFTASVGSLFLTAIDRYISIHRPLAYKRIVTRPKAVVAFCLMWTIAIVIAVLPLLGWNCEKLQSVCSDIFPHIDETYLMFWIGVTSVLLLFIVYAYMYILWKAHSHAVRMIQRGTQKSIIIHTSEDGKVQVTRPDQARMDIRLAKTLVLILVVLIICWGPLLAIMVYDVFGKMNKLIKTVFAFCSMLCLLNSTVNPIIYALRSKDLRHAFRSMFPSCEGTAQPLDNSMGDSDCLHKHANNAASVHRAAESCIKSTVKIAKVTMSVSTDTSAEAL
Description: In Vitro Affinity for Cannabinoid-CB1 Receptors
After incubation of a freshly prepared cell membrane preparation with the [^3H]-ligand, with or without addition of compounds of the invention, separation of bound and free ligand is performed by filtration over glassfiber filters. Radioactivity on the filter is measured by liquid scintillation counting.
The affinity of the compounds of the invention for CB1 receptors was determined as described above. […] Pharmacokinetic, pharmacodynamic, and other considerations may alter the dose actually administered to a higher or lower value. The dosage expediently administered is 0.001-1000 mg/kg, preferably 0.1-100 mg/kg of patient's bodyweight.

[2] = target: T2, human cannabinoid CB2 receptor (Homo sapiens, UniProt P34972); test: In vitro affinity for cannabinoid-CB2 receptors ([3H]CP-55,940 radioligand binding, CHO cell membranes); settings: membranes of CHO cells stably transfected with human CB2, mean of at least three independent experiments
T2 construct: expressed in transfected cells; host or cells: Chinese hamster ovary (CHO) cells, stably transfected; membrane preparation
T2 sequence (P34972 whole entry): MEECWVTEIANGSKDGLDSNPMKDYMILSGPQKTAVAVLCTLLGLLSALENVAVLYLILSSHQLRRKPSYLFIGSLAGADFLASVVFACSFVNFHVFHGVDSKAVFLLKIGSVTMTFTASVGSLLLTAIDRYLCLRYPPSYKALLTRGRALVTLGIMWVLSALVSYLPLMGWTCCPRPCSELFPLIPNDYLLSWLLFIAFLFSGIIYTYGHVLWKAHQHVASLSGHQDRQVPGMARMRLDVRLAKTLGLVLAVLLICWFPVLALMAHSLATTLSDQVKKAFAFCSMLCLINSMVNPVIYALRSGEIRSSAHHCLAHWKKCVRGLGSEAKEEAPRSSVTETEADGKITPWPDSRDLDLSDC
Description: In Vitro Affinity for Cannabinoid-CB2 Receptors
The affinity of the compounds of the invention for cannabinoid CB2 receptors can be determined using membrane preparations of Chinese hamster ovary (CHO) cells in which the human cannabinoid CB2 receptor is stably transfected in conjunction with [^3H]CP-55,940 as radioligand. After incubation of a freshly prepared cell membrane preparation with the [^3H]-ligand, with or without addition of compounds of the invention, separation of bound and free ligand is performed by filtration over glassfiber filters. Radioactivity on the filter is measured by liquid scintillation counting.

pKi ([1]; receptor affinity, membranes of CHO cells stably transfected with human CB1, [3H]CP-55,940, mean of at least three independent experiments, read-out: CB1) | melting point [°C] | Structure (SMILES) | pKi [1] | CB1/CB2 ratio [1] | pKi [2]
 |  | CS(=O)(=O)c1c(C(=O)NN2CCCCC2)nc(-c2ccc(Cl)cc2Cl)n1-c1ccc(Cl)cc1 [compound 1, 1-(4-Chlorophenyl)-2-(2,4-dichlorophenyl)-5-methylsulfonyl-N-(piperidin-1-yl)-1H-imidazole-4-carboxamide] | 7.92 | 638 | 5.12
 |  | CSc1c(C(=O)NN2CCCC2)nc(-c2ccc(Cl)cc2Cl)n1-c1ccc(Cl)cc1 [compound 9, 1-(4-chlorophenyl)-2-(2,4-dichlorophenyl)-5-methylsulfanyl-N-(pyrrolidin-1-yl)-1H-imidazole-4-carboxamide] | 8.30 | >200 | < 6.00
8.15 |  | CSc1c(C(=O)NN2CCCCCC2)nc(-c2ccc(Cl)cc2Cl)n1-c1ccc(Cl)cc1 [compound 10, 1-(4-chlorophenyl)-2-(2,4-dichlorophenyl)-5-methylsulfanyl-N-(azepan-1-yl)-1H-imidazole-4-carboxamide] |  | >142 | < 6.00
 |  | CSc1c(C(=O)NN2CCCCC2)nc(-c2ccc(Cl)cc2Cl)n1-c1ccc(Cl)cc1 [compound 6, 1-(4-Chlorophenyl)-2-(2,4-dichlorophenyl)-5-methylsulfanyl-N-(piperdin-1-yl)-1H-imidazole-4-carboxamide] |  | 171 | 5.69
 | 192 to 193 | CSc1c(C(=O)NN2CCCCC2)nc(-c2ccccc2Cl)n1-c1ccc(Cl)cc1 |  |  | 
